Assay [1] deals with Azospira suillum strain PS Δcld mutant. To be noted: grown aerobically, 40 μM chlorite. On the procedure: (§1) Azospira suillum PS (ATCC BAA-33/DSMZ 13638) was revived from a lab freezer stock and used as the wild-type strain for all genetic manipulations. Various E. coli strains were also used for cloning and conjugation purposes. Prior to all growth curves and genetic manipulations, all strains were streaked out from master freezer stocks to get single colonies.
(§2) E. coli strains were grown in LB media. Kanamycin (Kan, […]) was used for selection and diaminopimelic acid (DAP, 0.3 mM) was used as a supplement to cultivate the auxotrophic strain WM3064. For routine culturing as well as growth assays, wild-type and mutant strains of PS were grown in ALP media. One liter of ALP media is composed of 0.49 g monobasic sodium phosphate dihydrate, 0.97 g dibasic anhydrous sodium phosphate, 0.1 g potassium chloride, 0.25 g ammonium chloride, 0.82 g sodium acetate, 2.0 g yeast extract, 7.6 g of a 60% w/w sodium lactate solution, 1.10 g sodium pyruvate and 10 mL of both vitamin mix and mineral mix. To make solid ALP media for plates, 15 g/L agar was added. Kanamycin was used for selection of PS mutants at a concentration of […]. For anaerobic growth of PS, ALP media was supplemented with either 5 mM sodium nitrate, 2.5 mM sodium perchlorate, or 5 mM of both sodium nitrate and sodium perchlorate.

Assay [2] relates to Azospira suillum strain PS (wild type). To be noted: grown aerobically, 40 μM chlorite. Here is the method: as §1, §2
For assay [3], the system named is Shewanella oneidensis strain MR-1 wild type containing an empty expression vector (strain RAM13). To be noted: aerobic.
A further assay concerns lytic phage particles. To be noted: culture medium treated with chlorite at 15 mM; cited from earlier work.
Assay [4] relates to Caulobacter strain KR260 (empty plasmid). The note with it: 0.5 mM chlorite, 1:1 co-culture with KR3557, 30° C. Here is the method: (§3) Caulobacter crescentus NA 1000 harboring either pJS71 (KR260) or pJS14-xylX::cld (KR3557) were grown in PYE medium supplemented with 0.1% ferrous sulphate/chelate (Sigma # F0518) and 0.3% xylose to induce cld expression. pJS71 is a derivative of the broad-host-range plasmid pBBR1MCS (Kovach, M. E., et al. (1994) Biotechniques 16:800-2), which confers resistance to spectinomycin. […] Samples were withdrawn from each co-culture at the indicated times, diluted, and plated on PYE medium supplemented with 1 μg/ml chloramphenicol or with 100 μg/ml spectinomycin to enumerate survivors of each species.
(§4) Rather, both strains were co-cultured in PYE medium without selection, samples were taken, and the number of surviving colonies that were resistant to spectinomycin (KR260) or chloramphenicol (KR3557) were counted at the indicated times (FIG. 8).

In assay [5] the test system is Caulobacter strain KR3557 (chlorite dismutase expression plasmid). To be noted: 0.5 mM chlorite, 1:1 co-culture with KR260, 30° C. On the procedure:
as §3, §4

In assay [6] the test system is bacteriophage that attacks Pseudomonas chloritidismutans. The note with it: LB, 60 μM chlorite plus phage together, 37° C.
Procedure: (§7) For growth experiments, P. chloritidismutans was grown in LB medium to an OD600 of 0.233 (selected from a dilution series made from an overnight culture). […] Each condition was replicated in six wells of a microtiter plate incubated at 37° C. Optical density (600 nm) was recorded during growth in a plate reader.
In assay [7] the test system is Caulobacter crescentus NA1000 harboring pJS14-xylX::cld. To be noted: PYE with 0.3% xylose. Here is the method: (§5) Wild-type Caulobacter crescentus NA1000 (Marks, M. E., et al. (2010) J. Bacteriol. 192:3678-88) was grown in peptone-yeast extract medium (PYE; see Ely, B. (1991) Methods Enzymol. 204:372-84) supplemented with 0.1% (v/v) ferrous sulphate/chelate solution (Sigma # F0518). The plasmid pJS14 is a derivative of the broad-host-range cloning vector pBBR1MCS (Kovach, M. E., et al. (1994) Biotechniques 16:800-2), which confers resistance to chloramphenicol. To express Cld from pJS14, the cld open reading frame from P. chloritidismutans was placed behind a ˜430 base pair NcoI-EcoRI fragment of the xylX promoter from C. crescentus (Meisenzahl, A. C., et al. (1997) J. Bacteriol. 179:592-600). pJS14-xylX::cld or the empty vector pJS14 was transformed into NA1000 with selection using 1 μg/ml chloramphenicol.
(§6) The two strains were grown separately in PYE/chloramphenicol/ferrous sulphate supplemented with 0.3% xylose to induce cld expression. […] Each strain/condition was assayed in six individual wells.

In assay [8] the test system is wild-type Caulobacter crescentus NA1000 harboring pJS14. To be noted: PYE with 0.3% xylose. On the procedure: as §5, §6
In assay [9] the test system is Shewanella oneidensis strain MR-1 engineered strain (ICC38). To be noted: aerobic.
Assay [10] deals with Pseudomonas chloritidismutans. The note with it: LB, 60 μM chlorite alone, 37° C.
Procedure: as §7

Where two headings read alike, the source gives them in different places.

For the substance chlorite, the “growth of the Δcld mutant” value in assay [1] is listed as “no growth is observed”. Also, the “growth of the wild type strain” value in [2] is listed as “unimpaired”. Also, the “growth of the wild type strain (RAM13)” value is on record as “significant reduction in the growth rate” in assay [3] (250 μM chlorite) and “completely inhibited” in assay [3] (1000 μM chlorite). In the assay on lytic phage particles, the “reduction in lytic phage particles” value is given as “greater than 99%”. In [4], the “growth of KR260 in co-culture” value is reported as “completely blocked”. The “growth of KR3557 in co-culture” value in assay [5] was “slightly reduced rate”. Also, the “growth of P. chloritidismutans with live phage” value in assay [6] is “wild-type growth rate”. Moreover, the “growth of Caulobacter expressing chlorite dismutase versus control medium lacking chlorite” value in [7] (1 mM chlorite) and in assay [7] (4 mM chlorite) was “growing at the same rate” in each case. Further, the “growth of wild-type Caulobacter (pJS14)” value in [8] (1 mM chlorite) and in [8] (4 mM chlorite) was “completely blocked” in each case. In addition, the “growth of the recombinantly engineered strain (ICC38)” value in assay [9] (250 μM chlorite) is “unimpaired”; in assay [9] (1000 μM chlorite), “minimal growth impairment”. Also, the “growth of P. chloritidismutans” value in assay [10] is listed as “did not hinder the growth”.

The record behind these values is patent publication US10724010B2 (The Regents of the University of California, priority 2013, dated 2020).
